Assay results taken from patent US20150306081A1, “Chemotherapy for Drug-Resistant Cancer Cells” (THE UNIVERSITY OF SYDNEY, priority 2012, published 2015).
Read-outs that look alike come from different tables or passages of the source.

Tests used:
[1] = system: Pgp expressing 2008/P200A cells; test: MTT proliferation assay, 2008/P200A cells; type: cell-based; conditions: for sensitivity of 2008/P200A cells compared to 2008 cells: 72 h; for change of cytotoxicity in presence of Pgp inhibitors Val or Ela: 2008/P200A cells, Val 1 μM, Ela 0.1 μM
Method: (§1) The 2008 ovarian carcinoma cell line and the PAC-resistant 2008/P200A cell line (grown in 200 ng/mL of PAC) were kindly provided by Dr. John Allen (Centenary Institute, Sydney, Australia). Cells were grown in Dulbecco's modified Eagle's medium (DMEM; Life Technologies) with 10% (v/v) fetal calf serum (Sigma-Aldrich, St. Louis, Mo.) and supplemented with the following additions from Life Technologies: 1% (v/v) sodium pyruvate, 1% (v/v) non-essential amino acids, 100 U/mL penicillin, 100 μg/mL streptomycin, 2 mM L-glutamine and 0.28 μg/mL fungizone. The cells were then incubated at 37° C. in a humidified atmosphere of 5% CO2 and 95% air.
(§2) The effect of anti-cancer agents on cellular proliferation was examined using the MTT [3-(4,5-dimethylthiazol-2-yl)-2,5-diphenyl tetrazolium] method. In this assay, 3×10^3 cells/well were seeded in 96-well plates in 100 μL of media. The next day, serially diluted drugs of interest were added. […] The cells were incubated at 37° C. in a humidified atmosphere containing 5% CO2 and 95% air for 72 h. After this incubation, 10 μL of MIT (5 mg/mL) was added to each well and the incubation continued at 37° C. for 2 h. After solubilization of the cells with 100 μL of 10% SDS-50% isobutanol in 10 mM HCl, the plates were read at 570 nm using a scanning multi-well spectrophotometer (Victor™ Multilabel Counter plate reader; Perkin Elmer, Australia). Results were analyzed to calculate the concentration of chelator or complex necessary to reduce the absorbance to 50% (IC50) of the control.

Pgp [2] = target: T1, Pgp (Homo sapiens, UniProt P08183); test: Pgp-ATPase activity assay (Pgp-Glo)
T1 sequence (P08183 whole entry): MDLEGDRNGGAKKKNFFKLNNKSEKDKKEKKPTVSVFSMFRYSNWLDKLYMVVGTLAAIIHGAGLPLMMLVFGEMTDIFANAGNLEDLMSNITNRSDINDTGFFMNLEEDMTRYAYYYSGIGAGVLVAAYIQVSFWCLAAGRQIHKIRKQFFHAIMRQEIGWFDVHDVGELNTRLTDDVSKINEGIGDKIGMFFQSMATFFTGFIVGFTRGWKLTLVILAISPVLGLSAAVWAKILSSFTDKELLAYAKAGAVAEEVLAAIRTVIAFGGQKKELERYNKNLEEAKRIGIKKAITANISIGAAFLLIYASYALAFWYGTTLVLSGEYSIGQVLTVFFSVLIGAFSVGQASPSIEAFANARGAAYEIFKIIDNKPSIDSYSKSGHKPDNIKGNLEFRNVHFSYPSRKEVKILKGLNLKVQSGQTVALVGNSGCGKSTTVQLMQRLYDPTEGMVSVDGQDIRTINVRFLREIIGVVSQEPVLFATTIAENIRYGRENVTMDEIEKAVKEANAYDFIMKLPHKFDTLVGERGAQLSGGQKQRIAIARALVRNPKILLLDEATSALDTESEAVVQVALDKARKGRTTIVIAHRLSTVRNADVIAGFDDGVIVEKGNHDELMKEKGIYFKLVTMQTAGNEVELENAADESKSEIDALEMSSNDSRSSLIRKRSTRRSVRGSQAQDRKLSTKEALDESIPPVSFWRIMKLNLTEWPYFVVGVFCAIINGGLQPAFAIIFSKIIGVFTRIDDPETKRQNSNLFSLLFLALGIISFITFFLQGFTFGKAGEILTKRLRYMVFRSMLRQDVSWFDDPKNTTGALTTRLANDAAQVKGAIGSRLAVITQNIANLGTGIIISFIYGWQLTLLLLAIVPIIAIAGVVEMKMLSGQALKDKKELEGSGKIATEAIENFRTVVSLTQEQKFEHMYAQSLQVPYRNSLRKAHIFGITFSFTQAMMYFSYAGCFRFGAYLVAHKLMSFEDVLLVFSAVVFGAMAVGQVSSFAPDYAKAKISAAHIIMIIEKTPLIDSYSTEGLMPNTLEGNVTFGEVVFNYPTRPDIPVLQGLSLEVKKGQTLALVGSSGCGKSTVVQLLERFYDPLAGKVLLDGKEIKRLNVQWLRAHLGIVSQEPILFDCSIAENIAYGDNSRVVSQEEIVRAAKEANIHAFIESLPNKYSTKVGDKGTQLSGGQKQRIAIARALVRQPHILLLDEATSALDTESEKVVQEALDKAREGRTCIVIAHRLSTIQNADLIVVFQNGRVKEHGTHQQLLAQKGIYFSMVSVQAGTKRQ
Method: The ATPase activities of Pgp were determined using Pgp-enriched membranes and a luminescent ATP detection kit (Pgp-Glo Assay Kit, Promega, USA) according to the manufacturer's instructions. Briefly, Pgp membranes (0.5 mg/mL) and Mg(II)-ATP (5 mM) were incubated in the absence or presence of sodium orthovanadate (100 μM) for 40 min/37° C. and ATP detected as a luciferase-generated luminescent signal. Basal Pgp-ATPase activities were determined as the difference between the ATP hydrolysis in the presence or absence of sodium orthovanadate. Verapamil-stimulated Pgp-ATPase activity was measured in the presence of the Pgp control substrate, verapamil (200 μM).
Test substrates (Dp44mT and Bp4eT) of interest were dissolved in dimethyl sulfoxide. The final concentration of DMSO in the assay medium was less than 1%.
The Pgp Glo™ ATPase assay (Promega, Madison, Wis.) was used to assess if Dp44mT and Bp4eT are substrates of Pgp. The ATPase assay measures the Pgp-mediated ATPase activity of Pgp by quantitating ATP consumption in the presence of the compounds of interest after incubation with purified membrane proteins containing high levels of Pgp. […] The basal ATPase activity of Pgp is compared to the ATPase activity stimulated or inhibited by the compounds of interest.

[3] = system: Pgp-expressing KBV1 cells; test: MTT proliferation assay, KBV1 cells; type: cell-based, Human; conditions: for IC50: Homo sapiens, KB-V1, 72 h incubation; for IC50 / change of cytotoxicity in presence of Pgp inhibitors Val or Ela: KBV1 cells; for change of cytotoxicity in presence of Pgp inhibitors Val or Ela: Val 1 μM, Ela 0.1 μM, 72 h; for increase in resistance of KBV1 cells compared to KB31 cells: ratio of IC50, 72 h
KBV1 cells [4] = test: Lysosomal integrity, acridine orange flow cytometry, KBV1 cells; type: cell-based, Human; conditions: 30 min incubation
Method: Lysotracker® red (Life Technologies) and acridine orange (Sigma-Aldrich) are dyes showing high specificity for lysosomes and were used to determine lysosomal membrane permeability (LMP). The Lysotracker® red was visually assessed by fluorescence microscopy utilizing a Zeiss Axio Observer.Z1 Fluorescence Microscope equipped with an AxioCam camera (Zeiss, Oberkochen, Germany) and acridine orange was quantified by flow cytometry (see below).
Briefly, cells were incubated with Lysotracker® red (50 nM) for 15 min/37° C. or acridine orange (20 nM) for 15 min/37° C., washed on ice 3 times with ice-cold PBS and then incubated with Cu[Dp44mT] (25 μM) for 30 min/37° C. or Dp44mT alone (25 μM) for 30 min or 24 h/37° C.
(§3) The dyes, Rh123 and acridine orange were detected with the FACS Canto flow cytometer (BD Biosciences) and 10,000 events were acquired for every sample. Data analysis was performed using FlowJo software, version 7.5.5 (Tree Star Inc., Ashland, OR).

[5] = Redox studies: oxidation of H2DCF, cell-free
Method: These studies were conducted in an acetate buffer (150 mM; pH 5) containing cysteine (100 μM) to mimic lysosomal conditions. In these experiments, hydrogen peroxide (100 μM) was added to initiate ROS generation.

KBV1 cells [6] = test: MTT cytotoxicity after transient knockdown of Pgp (MDR1 siRNA) in KBV1 cells; type: cell-based, Human; conditions: Pgp siRNA vs. Scr siRNA, 72 h
Method: as §2
For all siRNA treatments against MDR1 (MDR1-siRNA; Cat #: 4123, Life Technologies), a siRNAlipofectamine mixture (50 nM MDR1 siRNA and 1/400 lipofectamine 2000) was added to the cells (at 30% confluency) and incubated for 72 h/37° C. prior to further experimentation. The effectiveness of Pgp knockdown was confirmed using western blot and also assessing DOX cytotoxicity via the MTT assay. As a control, scrambled siRNA (Scr siRNA; Life Technologies) was used at the same concentration as MDR1 siRNA.

[7] = system: non-Pgp expressing KB31 cells; test: Uptake of radio-labeled drug, KB31 cells; type: cell-based, Human; conditions: Val 1 μM or Ela 0.1 μM pre-incubation, versus control
Method: (§4) For the uptake assay, each 35 mm culture dish containing 5×10^5 cells was incubated with ^14C-doxorubicin, ^3H-vinblastine or ^14C-Dp44mT (all at 1 μCi) for 30 min/37° C. Cells were then washed on ice three times with ice-cold PBS and collected for analysis. Drug uptake was calculated as the number of drug molecules/cell. […] For studies using lysosomotropic agents, cells were pre-incubated with NH4Cl (5 mM), CLQ (100 μM) or MA (100 μM) for 30 min/37° C. prior to ^14C-Dp44mT uptake. […] For efflux assays, the same labeling procedure was conducted as in the uptake assay. […] After this procedure, the overlying media was removed using a Pasteur pipette and then placed in a counting vial. The cells were removed from the plate in 1 mL of PBS and then dispensed into a separate counting vial. The radiolabeled-drug efflux was calculated as a percentage of the total drug uptake by the cells found at zero time.

[8] = system: Pgp-expressing KBV1 cells; test: Uptake of radio-labeled drug, KBV1 cells; type: cell-based, Human; conditions: for effect of Pgp inhibitors Val and Ela on uptake: KBV1 cells, Val 1 μM or Ela 0.1 μM pre-incubation, versus control
Method: as §4, with “Cells” for “For the uptake assay, each 35 mm culture dish containing 5×10^5 cells was incubated with ^14C-doxorubicin, ^3H-vinblastine or ^14C-Dp44mT (all at 1 μCi) for 30 min/37° C. Cells”, “vial.” for “vial. The radiolabeled-drug efflux was calculated as a percentage of the total drug uptake by the cells found at zero time.”

[9] = system: non-Pgp expressing 2008 cells; test: MTT proliferation assay, 2008 cells; type: cell-based; conditions: for change of cytotoxicity in presence of Pgp inhibitors Val or Ela: 2008 cells, Val 1 μM, Ela 0.1 μM; for sensitivity of 2008 cells: compared to 2008/P200A cells
Method: as §1, §2

[10] = system: non-Pgp expressing KB31 cells; test: MTT proliferation assay, KB31 cells; type: cell-based, Human; conditions: for IC50: Homo sapiens, KB 3-1, 72 h incubation; for change of cytotoxicity in presence of Pgp inhibitors Val or Ela: Val 1 μM, Ela 0.1 μM, 72 h
[11] = system: non-Pgp expressing KB31 cells; test: Rhodamine 123 accumulation assay, KB31 cells; type: cell-based, Human; conditions: increased concentrations
Method: Cells were then harvested and resuspended in ice-cold PBS and kept on ice until flow cytometric analysis (see below).
as §3

Pgp [12] = target: T1, Pgp; set-up: purchased Promega; conditions: reported by others, biochemical assays; cited from earlier work
Pgp-expressing cells = conditions: reported by others; cited from earlier work

CCNC(=S)NN=C(c1ccccc1)c1ccccn1 [Bp4eT, 2-benzoylpyridine-4-ethyl-3-thiosemicarbazone]
sensitivity of 2008/P200A cells compared to 2008 cells [1]: significantly (p<0.001) increased sensitivity | Pgp-ATPase activity (in words) (Pgp [2]; relative to basal activity): significant (p<0.001) stimulation of ATPase activity | more cytotoxic in drug-resistant KBV1 cells compared to KB31 cells [3]: 6.7 fold

[Cl][Cu][Cl] [CuCl2, copper(II) chloride]
lysosomal integrity (acridine orange) (KBV1 cells [4]): did not compromise lysosomal integrity | redox activity (H2DCF oxidation) ([5]; acetate buffer pH 5, cysteine, H2O2, over 12 min): no activity | Pgp-ATPase activity (in words) (Pgp [2]): Neither FeCl3 nor CuCl2 significantly stimulated ATPase activity

COc1cccc2c1C(=O)c1c(O)c3c(c(O)c1C2=O)C[C@@](O)(C(=O)CO)C[C@@H]3O[C@H]1C[C@H](N)[C@H](O)[C@H](C)O1 [DOX, Doxorubicin]
change of cytotoxicity in presence of Pgp inhibitors Val or Ela [1]: abrogated the resistance | sensitivity of 2008/P200A cells compared to 2008 cells [1]: significantly higher resistance | decrease of IC50 by knockdown of Pgp (KBV1 cells [6]): 15 fold | effect of Pgp inhibitors Val and Ela on uptake [7]: did not significantly alter radiolabel uptake | effect of Pgp inhibitors Val and Ela on uptake [8]: significantly (p<0.001) increased the uptake | cellular accumulation in KBV1 cells relative to KB31 cells ([8]; control groups, 1 μCi): significantly (p<0.001) less | change of cytotoxicity in presence of Pgp inhibitors Val or Ela [9]: did not significantly (p>0.05) affect the cytotoxicity | sensitivity of 2008 cells [9]: extremely sensitive | IC50 [10]: 0.44 ± 0.003 µM | change of cytotoxicity in presence of Pgp inhibitors Val or Ela [10]: no significant (p>0.05) change in cytotoxicity | IC50 [3]: 96.4 ± 10.1 µM | change of cytotoxicity in presence of Pgp inhibitors Val or Ela [3]: markedly sensitized | increase in resistance of KBV1 cells compared to KB31 cells [3]: 220 fold

COc1cc2c(cc1OC)CN(CCc1ccc(NC(=O)c3cccc4c(=O)c5cccc(OC)c5[nH]c34)cc1)CC2 [Ela, Elacridar]
effect on Rh123 accumulation [11]: no significant effect on Rh123 accumulation

[Cl][Fe]([Cl])[Cl] [FeCl3]
lysosomal integrity (acridine orange) (KBV1 cells [4]): did not compromise lysosomal integrity | Pgp-ATPase activity (in words) (Pgp [2]): Neither FeCl3 nor CuCl2 significantly stimulated ATPase activity

COc1ccc(NC(=S)N=Nc2c(O)[nH]c3c(Cl)cc(Cl)cc23)cc1 [NSC73306]
direct interaction with Pgp (Pgp [12]): no direct interaction | cytotoxicity to Pgp-expressing cells compared to parent cells (Pgp-expressing cells): increased cytotoxicity to Pgp-expressing cells

CC[C@]1(O)C[C@@H]2CN(CCc3c([nH]c4ccccc34)[C@@](C(=O)OC)(c3cc4c(cc3OC)N(C)[C@H]3[C@@](O)(C(=O)OC)[C@H](OC(C)=O)[C@]5(CC)C=CCN6CC[C@]43[C@@H]65)C2)C1 [VBL, Vinblastine]
change of cytotoxicity in presence of Pgp inhibitors Val or Ela [1]: abrogated the resistance | sensitivity of 2008/P200A cells compared to 2008 cells [1]: significantly higher resistance | effect of Pgp inhibitors Val and Ela on uptake [7]: did not significantly alter radiolabel uptake | effect of Pgp inhibitors Val and Ela on uptake [8]: significantly (p<0.001) increased the uptake | change of cytotoxicity in presence of Pgp inhibitors Val or Ela [9]: did not significantly (p>0.05) affect the cytotoxicity | sensitivity of 2008 cells [9]: extremely sensitive | IC50 [10]: 0.13 ± 0.004 µM | change of cytotoxicity in presence of Pgp inhibitors Val or Ela [10]: no significant (p>0.05) change in cytotoxicity | IC50 [3]: 29.7 ± 1.77 µM | change of cytotoxicity in presence of Pgp inhibitors Val or Ela [3]: markedly sensitized | increase in resistance of KBV1 cells compared to KB31 cells [3]: 221 fold

C/C=C/C[C@@H](C)C(=O)[C@H]1C(=O)N[C@@H](C(C)C)C(=O)N(C)CC(=O)N(C)[C@@H](CC(C)C)C(=O)N[C@@H](C(C)C)C(=O)N(C)[C@@H](CC(C)C)C(=O)N[C@@H](C)C(=O)N[C@H](C)C(=O)N(C)[C@@H](CC(C)C)C(=O)N(C)[C@@H](CC(C)C)C(=O)N(C)[C@@H](C(C)C)C(=O)N1C [Val, Valspodar]
decrease of ATPase activity relative to the basal control (Pgp [2]; Pgp-enriched membranes, 40 min): 5 fold

tetrathiolmolybdate [TM]
effect on redox activity / ROS generation of Cu[Dp44mT] ([5]; 5 μM, acetate buffer pH 5): totally prevented
